The experiment concerns photocoagulation-induced cerebral infarction model C57BL/6J mice. The experiment can be described thus: Rotarod test in photocoagulation-induced cerebral infarction model. It counts as in vivo, mouse. As to the method:
Eight to 10-week-old male C57BL/6J mice (about 24 g) were used. A photocoagulation-induced cerebral infarction model for laser light irradiation after rose bengal administration was constructed. In this model, the skull of each mouse was drilled to open a hole having a center at 2 mm from the anterior fontanel in the outward direction. At 5 minutes after a photosensitive dye rose bengal was administered, the right motor cortex as a center was irradiated with laser light to create cerebral infarction in the right lateral motor cortex. An osmotic pump (ALZET osmotic pumps, for 2-week operation) was embedded immediately after the creation of the cerebral infarction. The mice were divided into a methylcobalamin treatment group (N=3) and an untreated group (N=4), and rotarod tests (accelerating velocity method) were carried out at 2, 4, 7, 9, 11, and 14 days after the surgery creating cerebral infarction. The time until a mouse fell from a rotarod was measured, and a ratio to a maximum of 300 seconds as baseline was calculated.

Turning to `C/C1=C2/[N-][C@H]([C@H](CC(N)=O)[C@@]2(C)CCC(=O)NC[C@@H](C)OP(=O)([O-])O[C@H]2[C@@H](O)[C@@H](n3cnc4cc(C)c(C)cc43)O[C@@H]2CO)[C@]2(C)N=C(/C(C)=C3N=C(/C=C4N=C1[C@@H](CCC(N)=O)C\4(C)C)[C@@H](CCC(N)=O)[C@]\3(C)CC(N)=O)[C@@H](CCC(N)=O)[C@]2(C)CC(N)=O.[CH3-].[Co+3]` [MeCbl, methylcobalamin], the “rotarod test: time until fall, ratio to a maximum of 300 seconds as baseline” value was 0.998 (0 day after PIT operation (baseline)); 0.470 (2 days after PIT operation, osmotic pump); “significantly improved” (2 days after PIT operation, osmotic pump, listed as methylcobalamin); 0.573 (4 days after PIT operation, osmotic pump); “significantly improved” (4 days after PIT operation, osmotic pump, listed as methylcobalamin); 0.370 (7 days after PIT operation, osmotic pump). Moreover, the “rotarod test: time until fall, ratio to a maximum of 300 seconds as baseline” value is on record as 0.437 (9 days after PIT operation, osmotic pump); “significantly improved” (9 days after PIT operation, osmotic pump, listed as methylcobalamin); 0.521 (11 days after PIT operation, osmotic pump); 0.510 (14 days after PIT operation, osmotic pump).

These data come from US12029751B2, “Therapeutic agent for nervous system disease” (OSAKA UNIVERSITY, priority 2017, dated 2024).
